Earlier results, collected in patent publication US10144913B1, “Method to increase the yield of products in plant material” (Arkansas State University-Jonesboro, priority 2012, dated 2018).

Experiments:
rotavirus = rotavirus infected HT29.f8 cells; Ball et al., 2015
HL-60 cells = conditions: caspase-dependent and caspase-independent pathways, Huang et al., 2010
[1] = molecular target: type II cannabinoid receptor (Homo sapiens, UniProt P34972); conditions: effect of the isoprenyl moiety; Brents et al., 2012
cannabinoid receptors = conditions: US 20120165281
[2] = in vitro, compared to resveratrol
[3] = in vitro, compared to resveratrol; US 20120165281

Sequence of type II cannabinoid receptor (P34972 whole entry): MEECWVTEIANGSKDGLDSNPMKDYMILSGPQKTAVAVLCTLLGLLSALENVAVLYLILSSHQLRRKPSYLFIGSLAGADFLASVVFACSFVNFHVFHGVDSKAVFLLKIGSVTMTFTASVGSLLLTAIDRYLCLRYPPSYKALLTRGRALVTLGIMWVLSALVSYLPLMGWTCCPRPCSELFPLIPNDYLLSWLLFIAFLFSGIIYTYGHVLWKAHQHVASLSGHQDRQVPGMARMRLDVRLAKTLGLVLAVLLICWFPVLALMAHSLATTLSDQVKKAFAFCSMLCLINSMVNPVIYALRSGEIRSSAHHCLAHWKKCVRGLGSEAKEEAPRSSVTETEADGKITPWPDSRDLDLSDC

Row | Structure (SMILES) | antiviral activity (inhibiting rotavirus replication) (rotavirus) | anticancer activity (HL-60 cells) | binding affinity to type II cannabinoid receptor [1] | affinity to cannabinoid receptors (cannabinoid receptors) | antioxidant activities [2] | metabolic profiles [3]
1 | CC(C)/C=C/c1c(O)cc(/C=C/c2ccc(O)c(O)c2)cc1O [arachidin-1] | exhibited antiviral activity | anticancer activity | improved binding affinity | have affinity | higher antioxidant activities than resveratrol | favorable metabolic profiles
2 | CC(C)/C=C/c1c(O)cc(/C=C/c2ccc(O)cc2)cc1O [arachidin-3] | exhibited antiviral activity | – | improved binding affinity | have affinity | – | favorable metabolic profiles
3 | Oc1ccc(C=Cc2cc(O)cc(O)c2)cc1 [resveratrol, reference compound] | not observed | – | – | – | – | –
